Measurements as given in PMC10477861, “Efficient Mining of Anticancer Peptides from Gut Metagenome” (Advanced Science, 2023).

Tests used:
Settings in all cases: 25 µM pACP, 24 h, maintenance medium 1% FBS, ratio of viability to vehicle (PBS), at least three technical repetitions
[1] = test system: HT29; assay: MTT primary screening of anticancer activity, HT29; assay type: cell-based, Human
Excerpt: (§1) We successfully chemically synthesized 40 pACPs for the purpose of in vitro or in vivo characterization of their potential anticancer efficacy. In the initial step, we conducted an in vitro primary screen of these 40 pACPs using a panel of 16 different cancer cell lines, including four human CRC lines (HT29, Caco2, HCT116, and […]), as well as 12 other cancer models (Table S4, Supporting Information). We deliberately selected a diverse panel of cell lines to assess the effect of pACPs across various genetic backgrounds. Briefly, the cancer cells were cultured in specific media (details provided in the Experimental Section) and then treated with pACPs at a final concentration of 25 µM. Peptides with minimum effective inhibition concentrations >25 µM were considered non‐ACPs. After exposure to pACPs, the survival rate of the cancer cells was measured using the MTT assay. Remarkably, 39 out of the 40 pACPs (97.5%) induced at least 20% inhibition in at least one cell line (Figure 3a and Table S5, Supporting Information). […] Thus, our method successfully identified pACPs with a very high rate of anticancer effects across various cancer cell lines.
(§2) To evaluate the activity of the 40 potentially effective pACPs, a panel of 16 cancer cell lines was treated, including human CRC cell lines (HT29, Caco‐2, HCT116). Details of the cell lines used, respective media, and culture conditions were presented in Table S1 (Supporting Information). Once the cells reached 60% confluence, it was incubated with each candidate peptide at a concentration of 25 µM pACPs for 24 h. Concurrently, the complete medium was replaced with a maintenance medium containing only 1% FBS. Subsequently, the viability of each cell line using the MTT Cell Proliferation and Cytotoxicity Assay Kit according to the manufacturer's instructions was assessed. […] For the CRC cell line CT26, it was calculated the CC50 value using two peptides (pACP1780 and pACP2283) with relevant data presented in Table S6 (Supporting Information). The calculation was performed using an online tool: https://www.aatbio.com/tools/ic50‐calculator.

[2] = test system: Caco2; assay: MTT primary screening of anticancer activity, Caco2; assay type: cell-based, Human
Excerpt: as §1, §2

[3] = test system: HCT116; assay: MTT primary screening of anticancer activity, HCT116; assay type: cell-based, Human
Excerpt: as §1, §2

[4] = test system: CT26; assay: MTT primary screening of anticancer activity, CT26; assay type: cell-based, Murine
Excerpt: as §1, §2

[5] = test system: MDA-MB-231; assay: MTT primary screening of anticancer activity, MDA-MB-231; assay type: cell-based
Excerpt: as §1, §2

[6] = test system: MDA-MB-436; assay: MTT primary screening of anticancer activity, MDA-MB-436; assay type: cell-based
Excerpt: as §1, §2

[7] = test system: MDA-MB-453; assay: MTT primary screening of anticancer activity, MDA-MB-453; assay type: cell-based
Excerpt: as §1, §2

[8] = test system: MDA-MB-468; assay: MTT primary screening of anticancer activity, MDA-MB-468; assay type: cell-based
Excerpt: as §1, §2

[9] = test system: SK-BR-3; assay: MTT primary screening of anticancer activity, SK-BR-3; assay type: cell-based
Excerpt: as §1, §2

[10] = test system: BT474; assay: MTT primary screening of anticancer activity, BT474; assay type: cell-based
Excerpt: as §1, §2

[11] = test system: T47D; assay: MTT primary screening of anticancer activity, T47D; assay type: cell-based
Excerpt: as §1, §2

[12] = test system: EFM192A; assay: MTT primary screening of anticancer activity, EFM192A; assay type: cell-based
Excerpt: as §1, §2

[13] = test system: B16; assay: MTT primary screening of anticancer activity, B16; assay type: cell-based, Mouse
Excerpt: as §1, §2

[14] = test system: MCF7; assay: MTT primary screening of anticancer activity, MCF7; assay type: cell-based
Excerpt: as §1, §2

[15] = test system: Hela; assay: MTT primary screening of anticancer activity, Hela; assay type: cell-based, Human
Excerpt: as §1, §2

[16] = test system: LCC; assay: MTT primary screening of anticancer activity, LCC; assay type: cell-based
Excerpt: as §1, §2

Row | Sequence | Survival rate of cancer cells in primary screening [1] | Survival rate of cancer cells in primary screening [2] | Survival rate of cancer cells in primary screening [3] | Survival rate of cancer cells in primary screening [4] | Survival rate of cancer cells in primary screening [5] | Survival rate of cancer cells in primary screening [6] | Survival rate of cancer cells in primary screening [7] | Survival rate of cancer cells in primary screening [8] | Survival rate of cancer cells in primary screening [9] | Survival rate of cancer cells in primary screening [10] | Survival rate of cancer cells in primary screening [11] | Survival rate of cancer cells in primary screening [12] | Survival rate of cancer cells in primary screening [13] | Survival rate of cancer cells in primary screening [14] | Survival rate of cancer cells in primary screening [15] | Survival rate of cancer cells in primary screening [16]
1 | IPNKKAGSRCLSKKCLLPAKRAFEIHFLTQLTGDIKGI [pACP766] | 0.47 | 0.68 | 1.00 | 1.00 | 1.00 | 0.52 | 1.00 | 1.00 | 1.00 | 0.71 | 0.61 | 1.00 | 1.00 | 0.59 | 0.68 | 1.00
2 | IYRKGTCADCAQGGVCTGHCSNKKTCAALKGVDKIAEDLGRGIK [pACP822] | 1.00 | 1.00 | 1.00 | 1.00 | 1.00 | 1.00 | 1.00 | 1.00 | 1.00 | 1.00 | 0.63 | 1.00 | 0.69 | 0.78 | 1.00 | 1.00
3 | KFCSSFFKSLQFPKAETLVGFKGKALKISNVLIKKSPIIK [pACP860] | 1.00 | 1.00 | 1.00 | 1.00 | 1.00 | 1.00 | 1.00 | 0.60 | 1.00 | 0.70 | 0.75 | 1.00 | 0.77 | 0.78 | 0.78 | 1.00
